From patent US12178840B2, “Method and compositions comprising a CT20 peptide” (UNIVERSITY OF CENTRAL FLORIDA RESEARCH FOUNDATION, INC., priority 2014, dated 2024) come the findings set out here.

Residues, ends and D or L forms follow the SMILES beside them.

The test system of series [1] is MDA-MB-231 subcutaneous tumors. Briefly: Tumor growth in mice bearing subcutaneous MDA-MB-231 tumors, nanoparticle treatment. It counts as in vivo. The text has this:
Referring to FIG. 2A, the graph summarizes the results with FOL-NPs that were empty, contained Doxorubicin (DOX), or CT20, and are compared to COOH-NPs with CT20. Referring to FIG. 2B, representative ultrasound data is shown from mice treated with PBS or FOL-CT20-NPs. Arrows indicate treatment times. *p<0.05.
To test the ability of CT20 to inhibit tumor growth, HBPE-NPs were modified with folate (FOL) to target the folate receptor (FR) (Boohaker, R. J., et al. (2012) Mol. Pharm. 7, 2080-2093; Lee, M. W., et al. (2014) Cell Death Dis. 5). FR targeting enabled concentration of the HBPE-NPs in murine tumors during systemic delivery. FIG. 2 is a representative animal experiment in which MDA-MB-231 cells were used to form subcutaneous tumors. Mice (n=5) were treated with two subcutaneous injections of nanoparticles (2 mg/kg/dose) over a five week period. […] Referring to FIG. 2B, representative ultrasound data is shown from mice treated with PBS or FOL-CT20-NPs. Arrows indicate treatment times. *p<0.05.

The next series concerns BT-549 cells. Briefly: Cell viability by flow cytometry (Sytox AADvanced / F2N12S), time course. Format: cell-based, human. The settings on record: 75 ug/mL. The protocol:
(§1) Measurement of cell viability: Cells at 60% confluency were treated with CT20p at a dose of 75 ug/mL for varying lengths of time. Following treatment, cells were collected and stained with Sytox AADvanced and F2N12S Violet Ratiometric Apoptosis kit (Invitrogen). Data was acquired by flow cytometry on a FACS Canto (BD Biosciences), and analyzed with FCSExpress software (DeNovo).
(§2) The cytotoxicity of CT20p to the cell lines was also assessed. To do this, cells were treated with the effective dose of CT20p in a time course-experiment, and membrane symmetry and permeability were examined by flow cytometry (FIG. 5B). […] BT-549 cells, on the other hand, were resistant to the effects of the peptide.
(In general: A flow cytometer gives signals particle by particle.)

Another series concerns MDA-MB-231 cells. Described as above. It counts as cell-based, human. The settings on record: 75 ug/mL. The protocol:
as §1, §2

The next series addresses T1, CCTβ (Homo sapiens, UniProt P78371).
T1 construct: probing lysates from the TNBC cell lines and MCF-10A cells with CT20p-biotin; endogenous in cells; host or cells: lysates of MDA-MB-231, MDA-MB-436, MDA-MB-468, BT-549 and MCF-10A cells
Briefly: Lysate pull-down with CT20p-biotin, immunoblot for CCTβ. The settings on record: TNBC cell lines and MCF-10A lysates; more so in the MSL subtypes. It counts as binding. As to the method:
Immunoblotting: Cell lysates were obtained by mechanical douncing in fractionation buffer consisting of 210 mM sucrose, 70 mM mannitol, 10 mM HEPES, 1 mM EDTA, pH 7.4. Lysates were centrifuged at 1,000×g for 10 minutes at 4° C., and the supernatants were subjected to SDS-PAGE, followed by transfer to Immobilon-FL membranes (Millipore). Blots were probed with primary antibodies against CCTβ (Millipore), […]. (Abcam), CCTε (Abcam), or p38 (Santa Cruz). Detection was performed by incubation with IRDye 800CW or IRDye 680CW secondary antibodies (LI-COR), followed by imaging on the Oddysey detection system (LI-COR). Quantificition of Western blots was performed with Image Studio software (LI-COR). Proteins of interest were quantified relative to p38 loading controls, then normalized to the level in MCF-10A cells.
(§3) Pull down experiments: Lysate pull-downs were performed with 200 ug cell lysate, obtained by douncing as described above. Lysates were pre-cleared with streptavidin-agarose beads (Pierce), then incubated with […] of CT20-Biotin or biotin for 3 hours at room temperature, followed by overnight incubation at 4° C. with streptavidin-agarose beads. Beads were washed thoroughly with wash buffer (25 mM Tris, 150 mM NaCl, 0.1% NP40, pH7.4), then heated in 4× loading buffer (Invitrogen) for analysis by SDS-PAGE. Mass spectrometric analysis was performed by Moffit Cancer Center (Tampa, FL). […]
For orientation: A western blot detects proteins with antibodies after separation by electrophoresis.

The target in the next series is T2, CCTβ in MCF-10A cells (Homo sapiens, UniProt P78371).
T2 construct: delivered to viable MDA-MB-231 and MCF-10A cells, followed by gentle cell lysis; endogenous in cells; host or cells: MCF-10A (untransfected)
Briefly: In-cell pull down (CT20p-biotin in HBPE-nanoparticles), blot for CCTβ. Format: cell-based. The settings on record: whole cell lysates. As to the method: as §3, with “FL). Mass spectrometry results presented are of proteins with at least two unique peptides identified, and that were not recovered with biotin-only pull down. In-cell pull downs were performed by first delivering CT20p-Biotin encapsulated in nanoparticles to viable cells at a dose of 75 μg/mL for varying lengths of time. Following treatment, cells were collected and lysed by douncing. 200 ug of cell lysate were then incubated with streptavidin-agarose beads overnight at 4° C., and pull-down was completed as described above.” for “FL).”
(§4) Because pull downs performed in cell lysates may emphasize non-specific protein interactions, we designed an in-cell pull down assay to better reflect interactions in the intracellular environment. […] Indeed, no pull down was detected with DiI-loaded nanoparticles.

For the next series, the target named is T3, CCTβ in MDA-MB-231 cells (Homo sapiens, UniProt P78371).
T3 construct: delivered to viable MDA-MB-231 and MCF-10A cells, followed by gentle cell lysis; endogenous in cells; host or cells: MDA-MB-231
The series is described as above. Format: cell-based. The settings on record: whole cell lysates. As to the method: as §3, with “FL). Mass spectrometry results presented are of proteins with at least two unique peptides identified, and that were not recovered with biotin-only pull down. In-cell pull downs were performed by first delivering CT20p-Biotin encapsulated in nanoparticles to viable cells at a dose of 75 μg/mL for varying lengths of time. Following treatment, cells were collected and lysed by douncing. 200 ug of cell lysate were then incubated with streptavidin-agarose beads overnight at 4° C., and pull-down was completed as described above.” for “FL).”
as §4

The test system of series [2] is cells isolated from paired normal tissue. Briefly: Lethality in cells isolated from paired normal tissue. It counts as cell-based, human. The settings on record: CT20 peptide in HBPE-NPs. An excerpt:
40× magnification. CCTβ was detected in invasive breast cancer.
The lethality of CT20 was also examined in cells isolated from primary breast tumors and paired normal tissue. […] To this end, the levels of CCTβ were examined in a pilot tissue array of breast cancer tissue cores by immunohistochemistry (IHC) and detected CCTβ in invasive breast cancer (FIG. 14B).

Regarding `CC[C@H](C)[C@H](NC(=O)[C@@H](NC(=O)[C@H](CC(C)C)NC(=O)[C@H](CO)NC(=O)[C@H](C)NC(=O)[C@@H](NC(=O)[C@H](CC(C)C)NC(=O)[C@@H](NC(=O)CNC(=O)[C@H](C)NC(=O)[C@@H](NC(=O)[C@H](Cc1ccccc1)NC(=O)[C@@H](NC(=O)[C@@H](NC(=O)[C@@H](NC(C)=O)C(C)C)[C@@H](C)O)[C@@H](C)CC)C(C)C)C(C)C)[C@@H](C)O)[C@@H](C)O)C(=O)N[C@@H](Cc1c[nH]c2ccccc12)C(=O)N[C@@H](CCCCN)C(=O)N[C@@H](CCCCN)C(=O)N[C@@H](CCSC)C(=O)NCC(N)=O` [CT20] (Ac-VTIFVAGVLTASLTIWKKMG-NH2), the “Effectiveness compared with Doxorubicin” value in series [1] (CT20 delivered in HBPE-NPs) is recorded as “as effective, if not more, than drugs such as Doxorubicin”. The “Inhibition of tumor growth” value in series [1] (two subcutaneous injections of nanoparticles (2 mg/kg/dose) over five weeks) is given as “caused tumor regression”. Besides, the “Sensitivity to CT20p cytotoxicity” value in the series with BT-549 cells is listed as “resistant”; with MDA-MB-231 cells, “highly susceptible”. Also, on CCTβ, the “Interaction with CCTβ in cell lysates” value is listed as “able to interact with CCTβ in all cell lines”. Besides, the “Effect on total CCTβ protein levels” value on CCTβ in MCF-10A cells and at CCTβ in MDA-MB-231 cells was “does not affect” in each case. For the same compound, in series [2], the Lethality result is “not the normal cells”.
